Article PMC11790956, “A microscale thermophoresis-based enzymatic RNA methyltransferase assay enables the discovery of DNMT2 inhibitors” (Communications Chemistry, 2025)
“Also recorded” adds a separate entry of the source.

What was measured:
DNMT2 [1] = target: T1, DNMT2 (Homo sapiens, UniProt O14717); assay: DNMT2 enzymatic split aptamer MST assay; format: biochemical
T1 construct: made in house
T1 sequence (O14717 1-391): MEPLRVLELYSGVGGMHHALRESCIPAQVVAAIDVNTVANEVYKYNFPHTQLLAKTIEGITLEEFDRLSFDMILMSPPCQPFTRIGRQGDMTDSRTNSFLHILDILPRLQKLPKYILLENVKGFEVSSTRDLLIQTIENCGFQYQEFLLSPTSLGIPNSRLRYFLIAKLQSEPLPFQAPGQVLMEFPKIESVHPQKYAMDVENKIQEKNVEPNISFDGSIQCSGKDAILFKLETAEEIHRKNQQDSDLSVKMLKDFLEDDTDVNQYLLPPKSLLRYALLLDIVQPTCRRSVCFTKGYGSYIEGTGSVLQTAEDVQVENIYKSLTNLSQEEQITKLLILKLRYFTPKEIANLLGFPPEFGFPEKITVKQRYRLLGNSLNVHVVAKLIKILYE
Experimental: The enzyme kinetics were characterized by calculating the Michaelis-Menten constant (KM or kcat) and inhibitory constants (IC50 resp. KI).
The final drug compound concentration was adjusted to 500 µM for the epigenetic drug library (Fig. 5) resp. 100 µM for the covalent compound library (Fig. 6), and the enzymatic reaction was incubated for 30 min at 25 °C. Subsequently, enzymatic reactions were terminated by the addition of 0.3% SDS, and the product SAH was quantified by the split aptamer MST assay (Figs. 5A, B, 6A).
For MTase assay detection by MST, enzyme reaction mixtures with a total volume of 10 µL per single treatment condition were prepared and incubated for the desired reaction times. Inhibitors were added from corresponding DMSO stocks to a final DMSO concentration of max. 5%. Afterward, reactions were quenched at a given reaction time by the addition of 1 µL sodium dodecyl sulfate (SDS, solution, 3% in water) per 10 µL reaction mixture and mixed well by pipetting. Subsequently, 1 µL of a 10× aptamer-containing detection master mix (200 mM Tris, pH 8.5, 200 mM MgCl2, 3 M NaCl, 10 mM urea, 0.2% Brij, 500 nM aptaSAH1, 500 nM aptaSAH2) was added to the quenched MTase reaction and incubated for 1 h at room temperature. Reaction mixtures were loaded directly to MST capillaries without further purification or sample processing.
MST experiments were carried out in at least technical triplicates using a Monolith NT.115 instrument (NanoTemper Technologies) using Monolith standard capillaries and the blue excitation laser setup. The instrument was calibrated according to the manufacturer’s instructions. General settings were applied for all MST experiments as follows: manual temperature control: 25 °C, fluorescence measurement before MST: 4 s, MST (IR laser) on: 20 s, fluorescence after MST: 2 s, delay: 25 s. The laser power was adjusted to optimize the signal-to-noise ratio and the fluorescence signal. LED and MST power settings were chosen individually for each sample by adjusting the LED power to yield fluorescence signals of at least 300 units (blue laser) or 3000 units (red laser) and the MST power to achieve an appropriate thermophoretic response (standard setting: medium MST power).

S. aureus TrmD = target: T2, S. aureus TrmD (Staphylococcus aureus, UniProt Q2FZ43); assay: S. aureus TrmD enzymatic split aptamer MST assay; format: biochemical; details: 500 µM of hit compound, Fig. 5D
T2 construct: made in house
T2 sequence (Q2FZ43 1-245): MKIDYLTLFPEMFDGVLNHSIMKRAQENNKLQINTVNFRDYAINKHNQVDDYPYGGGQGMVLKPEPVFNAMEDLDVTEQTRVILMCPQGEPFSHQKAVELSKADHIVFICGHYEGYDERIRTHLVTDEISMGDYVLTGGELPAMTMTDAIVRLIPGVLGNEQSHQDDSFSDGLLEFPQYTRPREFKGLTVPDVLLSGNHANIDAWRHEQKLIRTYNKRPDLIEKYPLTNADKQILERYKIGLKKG
Experimental: DNMT2 & S. aureus TrmD: 100 mM Tris-HCl, pH 8, 100 mM NH4OAc, 0.1 mM EDTA, 10 mM MgCl2, 10 mM DTT. For TrmD: 50 nM TrmD, 2 µM SAM, 1 µM tRNA^Leu.
For MTase assay detection by MST, enzyme reaction mixtures with a total volume of 10 µL per single treatment condition were prepared and incubated for the desired reaction times. Inhibitors were added from corresponding DMSO stocks to a final DMSO concentration of max. 5%. Afterward, reactions were quenched at a given reaction time by the addition of 1 µL sodium dodecyl sulfate (SDS, solution, 3% in water) per 10 µL reaction mixture and mixed well by pipetting. Subsequently, 1 µL of a 10× aptamer-containing detection master mix (200 mM Tris, pH 8.5, 200 mM MgCl2, 3 M NaCl, 10 mM urea, 0.2% Brij, 500 nM aptaSAH1, 500 nM aptaSAH2) was added to the quenched MTase reaction and incubated for 1 h at room temperature. […]

DNMT2 [2] = target: T1, DNMT2; assay: DNMT2 fluorescence polarization (FP) FTAD displacement assay; format: binding
Experimental: Fluorescence polarization assays were conducted with a similar sample composition as described for FTAD-MST assays as described previously. Triplicates (50 µL) were prepared in black 96-well half-area plates (Greiner) and measured using a Spark 10 M plate reader (Tecan) equipped with polarization filters coupled to a monochromator setup (FTAD: λex = 480 nm, λem = 530 nm). Polarization values (in mP) were calculated from polarization-specific parallel and orthogonal fluorescence intensities according to the Tecan in-built calculation routine.
Reversibility of alexidine binding to DNMT2 was evaluated with a modified FP-assay setup. Briefly, reaction mixtures containing alexidine were prepared in black 96-well half-area plates, and after FP measurement, the volume of one well (50 µL) was collected and applied to a Zeba™ Spin Desalting Column (7 K MWCO) while 5 µL of a 10x DNMT2 buffer solution (500 mM HEPES, 1.5 M NaCl, 10 mM dithiothreitol (DTT), 1% PEG-8000, 0.5% polysorbate-20, pH 7.4) was placed in the collection tube attached to the SEC column. This procedure separated alexidine and restored the initial composition of the DNMT2 assay solution.
Kinetic FP assays were performed to assess the time-dependent inactivation of DNMT2 treated with covalent inhibitors. Briefly, samples contained 2 µM DNMT2, 100 nM FTAD probe, and 1.3% DMSO in DNMT2 MST buffer. Inhibitors were added from DMSO stocks. Negative inhibition control was performed by mock treatment with DMSO. Reactions were initiated by the addition of the Cpd 11 (adamantanyl-acryloylurea) and monitored for 120 min at 25 °C in a Tecan Spark 10 M plate reader (FTAD: λex = 480 nm, λem = 530 nm) The irreversible inhibition kinetics were analyzed as described previously[35],[36].

NSUN2 = target: T3, NSUN2 (Homo sapiens, UniProt Q08J23); assay: NSUN2 enzymatic split aptamer MST assay (selectivity panel); format: biochemical; details: 500 µM of hit compound, Fig. 5D
T3 construct: made in house
T3 sequence (Q08J23 whole entry, species assumed): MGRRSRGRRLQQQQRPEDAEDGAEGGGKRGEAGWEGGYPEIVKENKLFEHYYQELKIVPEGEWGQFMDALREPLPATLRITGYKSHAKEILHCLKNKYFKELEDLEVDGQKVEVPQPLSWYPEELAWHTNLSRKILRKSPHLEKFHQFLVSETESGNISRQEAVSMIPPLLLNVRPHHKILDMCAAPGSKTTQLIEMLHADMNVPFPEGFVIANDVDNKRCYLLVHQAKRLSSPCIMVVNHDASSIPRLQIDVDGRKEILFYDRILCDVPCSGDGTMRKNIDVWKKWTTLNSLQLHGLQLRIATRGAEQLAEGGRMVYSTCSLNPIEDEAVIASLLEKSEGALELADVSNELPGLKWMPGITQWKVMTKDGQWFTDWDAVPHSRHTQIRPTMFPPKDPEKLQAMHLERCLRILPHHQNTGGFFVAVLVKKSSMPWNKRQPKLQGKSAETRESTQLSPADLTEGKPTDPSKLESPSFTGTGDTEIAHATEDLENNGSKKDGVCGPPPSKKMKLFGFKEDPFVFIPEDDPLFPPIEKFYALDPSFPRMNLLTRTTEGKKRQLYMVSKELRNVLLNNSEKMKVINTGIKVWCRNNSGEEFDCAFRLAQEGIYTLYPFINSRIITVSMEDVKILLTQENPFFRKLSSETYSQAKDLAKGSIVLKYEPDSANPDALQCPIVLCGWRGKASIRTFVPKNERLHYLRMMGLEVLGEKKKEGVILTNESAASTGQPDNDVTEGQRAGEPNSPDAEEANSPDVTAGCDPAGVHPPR
Excerpt: Next, we investigated the target selectivity of all hit compounds by inhibition experiments using the MTases characterized in this study (DNMT2, METTL3/14, TrmD, and NSUN2) as a selectivity panel. […] While Cpd3 (alexidine) could be identified as a DNMT2 inhibitor during MST- and FP- experiments, the ligand’s hydrophobic nature raised the concern this compound might be an aggregator of DNMT2. To exclude this possibility, we investigated the reversibility of alexidine binding using the FP displacement assay and separation of the alexidine ligand by small-scale size-exclusion chromatography (SEC)[34].
NSUN2: 50 mM Tris-HCl, pH 7.5, 5 mM EDTA, 5 mM MgCl2, 1.5 mM DTT. 200 nM NSUN2, 1 µM SAM, 250 ng/µL tRNA (total from E. coli). […]
MST experiments were carried out in at least technical triplicates using a Monolith NT.115 instrument (NanoTemper Technologies) using Monolith standard capillaries and the blue excitation laser setup. […] General settings were applied for all MST experiments as follows: manual temperature control: 25 °C, fluorescence measurement before MST: 4 s, MST (IR laser) on: 20 s, fluorescence after MST: 2 s, delay: 25 s. The laser power was adjusted to optimize the signal-to-noise ratio and the fluorescence signal. […] MST measurements were analyzed using the NT analysis software (version 1.5.41) and exported for statistical analysis and plotting in GraphPad Prism 7.01.

C=CC(=O)NC(=O)NC12CC3CC(CC(C3)C1)C2 [Cpd 11, 1-(adamantan-1-yl)-3-(prop-2-enoyl)urea]
inhibition at 100 µM (DNMT2 [1]; 100 µM compound, covalent library, 30 min at 25 °C, read-out: DNMT2 inhibition in primary screening): > 90% | IC50 (DNMT2 [1]; MST-derived, 250 nM DNMT2, 5 µM tRNA, 0.9 µM SAM): 4.1 µM | inhibition of TrmD (selectivity panel) (S. aureus TrmD): did not inhibit | displacement of FTAD tracer / binding to SAH-binding site (DNMT2 [2]; FP library screening with FTAD tracer): binding to the SAH-binding site; also recorded: displaced the FP-probe FTAD effectively | time dependence of FTAD displacement (DNMT2 [2]; kinetic FP assay): time-dependent DNMT2 inhibition; also recorded: time-dependent displacement of the FTAD FP-tracer | kinact (DNMT2 [2]; kinetic FP assay, kobs vs. [I], 120 min at 25 °C): 0.00285 s⁻¹ | inhibition of NSUN2 (selectivity panel) (NSUN2): did not inhibit
